Laboratory results taken from PubChem BioAssay AID1645867 (Buhrlage Lab, Dana-Farber Cancer Institute and Novartis …, 2021).
The source made the active and inactive calls. No rule for the calls is given here.

Molecular target: Ubiquitin carboxyl-terminal hydrolase isozyme L1 (Homo sapiens) (UniProt P09936)
Experiment: biochemical concentration-response of UCH-L1 DUB inhibitors, hit verification (AID 1645867)
Settings: recombinant UCHL1 deubiquitinase activity assay

Ubiquitin carboxyl-terminal hydrolase isozyme L1 (Homo sapiens), sequence (P09936 whole entry, looked up): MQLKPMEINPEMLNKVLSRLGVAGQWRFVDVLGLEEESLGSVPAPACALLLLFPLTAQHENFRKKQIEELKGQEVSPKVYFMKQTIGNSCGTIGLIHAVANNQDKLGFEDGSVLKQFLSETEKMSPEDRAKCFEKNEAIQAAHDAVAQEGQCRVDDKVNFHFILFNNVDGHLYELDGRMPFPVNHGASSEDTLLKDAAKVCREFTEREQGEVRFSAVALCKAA

IC50 | Compound
> 25 µM (inactive) | Cc1nn(-c2ccccc2)c2c1C1(C(=O)Nc3ccccc31)N1C(=N2)Sc2ccccc21 (stereo not given)
> 25 µM (inactive) | O=C(CN1CCOCC1)Nc1ccc(NC(=O)c2ccc(Cl)cc2)cc1
> 25 µM (inactive) | COc1ccc(Cl)cc1NC(=O)c1cc(-c2ccccn2)n[nH]1
> 25 µM (inactive) | O=C(Cn1c(=O)c2ccccc2c2ccccc21)Nc1ccc2c(c1)OCO2
> 25 µM (inactive) | CCc1cccc(C)c1NC(=O)Cn1nc2ccc(C(=O)NCc3ccccc3)cn2c1=O
> 25 µM (inactive) | COc1c2nc3ccccc3oc-2cc(=O)c1OC
> 25 µM (inactive) | O=C(O)c1c(CNC2CCCCCC2)c2ccccc2n1Cc1ccc(F)cc1
> 25 µM (inactive) | CCc1ccc(-n2c(C)cc(/C=C3\C(=N)N4N=CSC4=NC3=O)c2C)cc1
> 25 µM (inactive) | O=C(CCSc1nnnn1-c1ccccc1)Nc1cc(C(F)(F)F)ccc1Cl
> 25 µM (inactive) | O=C(CSc1ccc2nnc(-c3cccc(F)c3)n2n1)N1CCCc2ccccc21
> 25 µM (inactive) | Cc1nnc(-c2ccc3ccn(CC(=O)N4CCN(c5ccccc5)CC4)c3c2)o1
> 25 µM (inactive) | O=C(Nc1cnc(-c2cccc(Cl)c2)nc1)C1CCC1
> 25 µM (inactive) | Cc1nc(C2COCCN2C(=O)c2cc(C(C)(C)C)[nH]n2)cc(=O)[nH]1 (stereo not given)
> 25 µM (inactive) | O=C(/C=C/c1ccc(Cl)cc1)N(Cc1ccccc1)C1CCS(=O)(=O)C1 (stereo not given)
> 25 µM (inactive) | Cc1ccc(Cn2c(C(=O)O)c(CNCc3cccnc3)c3ccccc32)cc1

Second part, the compound before the results:

Compound | IC50
C=C(CCC(C)(C)/C=C/CC/C(C)=C/COC(COP(=O)(O)O[C@@H]1OC(C(N)=O)[C@@](C)(O)[C@H](OC(N)=O)C1O[C@@H]1OC(CO[C@@H]2OC(CO)[C@H](O)[C@H](O)C2O)[C@H](O[C@@H]2OC(CO)[C@H](O[C@@H]3OC(C(=O)NC4=C(O)CCC4=O)[C@H](O)[C@H](O)C3O)[C@H](O)C2NC(C)=O)C(O)[C@@H]1NC(C)=O)C(=O)O)CC1C(=C)CCCC1(C)C (stereo not given in full) | > 25 µM (inactive)
N#Cc1cccc(C(=O)Nc2cccc(Oc3ccccc3)c2)c1 | > 25 µM (inactive)
CCc1ccc(NC(=O)Cn2c(=O)n(Cc3ccccc3)c(=O)c3nn(CC)cc32)cc1 | > 25 µM (inactive)
Cc1ccc2c(c1)c(=O)c(C(=O)c1ccccc1)cn2CC(=O)Nc1ccccc1 | > 25 µM (inactive)
CC1=C(C)C(c2c(-c3ccc(C)cc3)[nH]c3ccccc23)N(C(C)(C)C)C1=O (stereo not given) | > 25 µM (inactive)
CC(C)CC1NC(=O)C2CCCN2C1=O (stereo not given) | 23.9 µM
CSc1ncccc1C(=O)NC1(O)C(=O)c2ccccc2C1=O | 18.3 µM
CC(C)Cc1ccc(-c2cc(-c3ccc(C(F)(F)F)cc3)c(C#N)c(=O)[nH]2)cc1 | > 25 µM (inactive)
CCOc1ccc2c(c1)c(=O)c(C(=O)c1ccccc1)cn2CC(=O)Nc1ccccc1 | > 25 µM (inactive)
Cc1ccc(NC(=O)c2cc(-c3ccccn3)nc3c(Cl)cccc23)nc1 | > 25 µM (inactive)
O=C(NCC(c1cccnc1)N1CCOCC1)C1CCCCC1 (stereo not given) | > 25 µM (inactive)
O=C(NC1CC1)c1ccc(OCC2CCCN(C(=O)c3ccccc3)C2)cc1 (stereo not given) | > 25 µM (inactive)
O=C(CN1CC(=O)c2ccccc2S1(=O)=O)Nc1ccccc1 | > 25 µM (inactive)
COc1cc(OC)c(NC(=O)c2cc(-c3ccccn3)n[nH]2)cc1Cl | > 25 µM (inactive)
Cc1cc(C)c(NC(=O)Cn2c(SCc3cccc(F)c3)nc3cccnc32)c(C)c1 | > 25 µM (inactive)
Cc1ncc(CO)c2c1Oc1nc(-c3cccc(Cl)c3)nc(SCC(=O)N3CCCCC3)c1C2 | > 25 µM (inactive)
Cc1nc(C(=O)NC2(O)C(=O)c3ccccc3C2=O)cs1 | 20.7 µM
CCN(CC)Cc1ccc(-c2nnc(-c3cnc4onc(C)c4c3)o2)o1 | > 25 µM (inactive)
COc1ccc(-c2noc(-c3nnn(CC(=O)Nc4ccc(OC)cc4OC)c3N)n2)cc1 | > 25 µM (inactive)
Cc1cc2nc(N3CCN(C(=O)c4ccccc4)CC3)c3ccccc3n2n1 | > 25 µM (inactive)
